Data: patent US20250115569A1, “SULFONAMIDE COMPOUNDS FOR THE TREATMENT OF NEUROLOGICAL CONDITIONS” (LARIO THERAPEUTICS LIMITED, priority 2021, published 2025)

Test system: Human Cav2.3 channel
Experiment: Human Cav2.3 channel calcium-influx assay
Format: cell-based
Conditions: Fluo8 fluorescence, HEK-293 T-Rex/Kir2.1/Cav2.3e cells, without pluronic acid
How it was run: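 Signal = peak fluorescence (5–130 s) minus baseline (1–2 s), normalized to neutral (0) and inhibitor (−100) controls as % effect. Depolarization used final 20 mM KCl, 130 mM NaCl, 2 mM CaCl2, after 3 min RT compound exposure (30 μM top, half-log, 8 points, 0.3% DMSO) in doxycycline-induced HEK-293 T-Rex/Kir2.1/Cav2.3e-β4-α2δ1 cells with Fluo8 NW.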

| Compound | Cav2.3 (pIC50) |
| --- | --- |
| CN([C@H](c1ccc(F)cc1)C(F)(F)F)S(=O)(=O)C1CCOCC1 [Example 132, (R)—N-methyl-N-(2,2,2-trifluoro-1-(4-fluorophenyl)ethyl)tetrahydro-2H-pyran-4-sulfonamide] | 6.05 |
| CCN([C@H](c1ccc(Cl)cc1)C(F)(F)F)S(=O)(=O)c1cncnc1 [Example 134, (R)—N-(1-(4-chlorophenyl)-2,2,2-trifluoroethyl)-N-ethylpyrimidine-5-sulfonamide] | 7.65 |
| CCN(C(c1ccc(F)cc1)C(F)(F)F)S(=O)(=O)c1ccn2ccnc2c1 (centres unmarked) [Example 135, N-ethyl-N-(2,2,2-trifluoro-1-(4-fluorophenyl)ethyl)imidazo[1,2-a]pyridine-7-sulfonamide] | 6.76 |
| CCN([C@H](c1ccc(F)cc1)C(F)(F)F)S(=O)(=O)c1ccn2cnnc2c1 [Example 138, (R)—N-ethyl-N-(2,2,2-trifluoro-1-(4-fluorophenyl)ethyl)-[1,2,4]triazolo[4,3-a]pyridine-7-sulfonamide] | 6.78 |
| CCNc1nc2ccc(S(=O)(=O)N(CC)[C@H](c3ccc(F)cc3)C(F)(F)F)cc2s1 [Example 139, (R)—N-ethyl-2-(ethylamino)-N-(2,2,2-trifluoro-1-(4-fluorophenyl)ethyl)benzo[d]thiazole-6-sulfonamide] | 6.31 |
| CCN([C@H](c1ccc(F)cc1)C(F)(F)F)S(=O)(=O)c1cnc2cc[nH]c2c1 [Example 149, (R)—N-ethyl-N-(2,2,2-trifluoro-1-(4-fluorophenyl)ethyl)-1H-pyrrolo[3,2-b]pyridine-6-sulfonamide] | 6.61 |
| CCN([C@H](c1ccc(F)cc1)C(F)(F)F)S(=O)(=O)c1cc2nncn2cn1 [Example 152, (R)—N-ethyl-N-(2,2,2-trifluoro-1-(4-fluorophenyl)ethyl)-[1,2,4]triazolo[4,3-c]pyrimidine-7-sulfonamide] | 6.51 |
| CCN([C@H](c1ccc(F)cc1)C(F)(F)F)S(=O)(=O)c1ccc2nc(N)sc2c1 [Example 154, (R)-2-amino-N-ethyl-N-(2,2,2-trifluoro-1-(4-fluorophenyl)ethyl)benzo[d]thiazole-6-sulfonamide] | 6.70 |
| CCN([C@H](c1ccc(F)cc1)C(F)(F)F)S(=O)(=O)c1ccc2cn[nH]c2c1 [Example 159, (R)—N-ethyl-N-(2,2,2-trifluoro-1-(4-fluorophenyl)ethyl)-1H-indazole-6-sulfonamide] | 6.33 |
| CCN([C@H](c1ccc(F)cc1)C(F)(F)F)S(=O)(=O)c1ccc2cnn(C)c2c1 [Example 160, (R)—N-ethyl-1-methyl-N-(2,2,2-trifluoro-1-(4-fluorophenyl)ethyl)-1H-indazole-6-sulfonamide] | 6.06 |
| CN([C@H](c1ccc(F)cc1)C(F)(F)F)S(=O)(=O)c1ccc2cnn(C)c2c1 [Example 161, (R)—N,1-dimethyl-N-(2,2,2-trifluoro-1-(4-fluorophenyl)ethyl)-1H-indazole-6-sulfonamide] | 6.22 |
| CCN([C@H](c1ccc(F)cc1)C(F)(F)F)S(=O)(=O)c1ccc2c(c1)OC(F)(F)O2 [Example 162, (R)—N-ethyl-2,2-difluoro-N-(2,2,2-trifluoro-1-(4-fluorophenyl)ethyl)benzo[d][1,3]dioxole-5-sulfonamide] | 6.01 |
| CN([C@H](c1ccc(F)cc1)C(F)(F)F)S(=O)(=O)c1ccc2c(c1)OC(F)(F)O2 [Example 163, (R)-2,2-difluoro-N-methyl-N-(2,2,2-trifluoro-1-(4-fluorophenyl)ethyl)benzo[d][1,3]dioxole-5-sulfonamide] | 5.76 |
| CCN([C@H](c1ccc(F)cc1)C(F)(F)F)S(=O)(=O)c1ccc2nncn2n1 [Example 192, (R)—N-ethyl-N-(2,2,2-trifluoro-1-(4-fluorophenyl)ethyl)-[1,2,4]triazolo[4,3-b]pyridazine-6-sulfonamide] | 6.18 |
| CN([C@H](c1ccc(Cl)cc1)C(F)(F)F)S(=O)(=O)c1cnc2[nH]cnc2c1 [Example 193, (R)—N-(1-(4-chlorophenyl)-2,2,2-trifluoroethyl)-N-methyl-3H-imidazo[4,5-b]pyridine-6-sulfonamide] | 6.65 |
| CN([C@H](c1ccc(Cl)cc1)C(F)(F)F)S(=O)(=O)c1ccc2nncn2n1 [Example 205, (R)—N-(1-(4-chlorophenyl)-2,2,2-trifluoroethyl)-N-methyl-[1,2,4]triazolo[4,3-b]pyridazine-6-sulfonamide] | 5.89 |
| CN([C@H](c1ccc(Cl)cc1)C(F)F)S(=O)(=O)c1cncc(C#N)c1 [Example 206, (R)—N-(1-(4-chlorophenyl)-2,2-difluoroethyl)-5-cyano-N-methylpyridine-3-sulfonamide] | 6.60 |
| COc1ccc(S(=O)(=O)N(C)[C@H](c2ccc(Cl)cc2)C(F)(F)F)nn1 [Example 207, (R)—N-(1-(4-chlorophenyl)-2,2,2-trifluoroethyl)-6-methoxy-N-methylpyridazine-3-sulfonamide] | 6.02 |

| Compound | Cav2.3 (pIC50) |
| --- | --- |
| CN([C@H](c1ccc(Cl)cc1)C(F)(F)F)S(=O)(=O)c1cnc2cccnn12 [Example 210, (R)—N-(1-(4-chlorophenyl)-2,2,2-trifluoroethyl)-N-methylimidazo[1,2-b]pyridazine-3-sulfonamide] | 6.85 |
| CN([C@H](c1ccc(C(F)(F)F)cc1)C(F)(F)F)S(=O)(=O)c1cnc2cccnn12 [Example 211, (R)—N-methyl-N-(2,2,2-trifluoro-1-(4-(trifluoromethyl)phenyl)ethyl)imidazo[1,2-b]pyridazine-3-sulfonamide] | 7.17 |
| CCN([C@H](c1ccc(C(F)(F)F)cc1)C(F)(F)F)S(=O)(=O)c1cnc2cccnn12 [Example 212, (R)—N-ethyl-N-(2,2,2-trifluoro-1-(4-(trifluoromethyl)phenyl)ethyl)imidazo[1,2-b]pyridazine-3-sulfonamide] | 6.80 |
| CN([C@@H](CF)c1ccc(Cl)cc1)S(=O)(=O)c1cncc(C#N)c1 [Example 213, (R)—N-(1-(4-chlorophenyl)-2-fluoroethyl)-5-cyano-N-methylpyridine-3-sulfonamide] | 6.07 |
| CN([C@H](c1ccc(C(F)(F)F)cc1)C(F)(F)F)S(=O)(=O)c1cnc2ncccn12 [Example 214, (R)—N-methyl-N-(2,2,2-trifluoro-1-(4-(trifluoromethyl)phenyl)ethyl)imidazo[1,2-a]pyrimidine-3-sulfonamide] | 6.95 |
| CN([C@H](c1ccc(C(F)(F)F)cc1)C(F)(F)F)S(=O)(=O)c1ccn2ncnc2c1 [Example 215, (R)—N-methyl-N-(2,2,2-trifluoro-1-(4-(trifluoromethyl)phenyl)ethyl)-[1,2,4]triazolo[1,5-a]pyridine-7-sulfonamide] | 7.15 |
| CCN([C@H](c1ccc(C(F)(F)F)cc1)C(F)(F)F)S(=O)(=O)c1ccn2ncnc2c1 [Example 216, (R)—N-ethyl-N-(2,2,2-trifluoro-1-(4-(trifluoromethyl)phenyl)ethyl)-[1,2,4]triazolo[1,5-a]pyridine-7-sulfonamide] | 7.29 |
| CN([C@H](c1ccc(C(F)(F)F)cc1)C(F)(F)F)S(=O)(=O)c1cncc(F)c1 [Example 224, (R)-5-fluoro-N-methyl-N-(2,2,2-trifluoro-1-(4-(trifluoromethyl)phenyl)ethyl)pyridine-3-sulfonamide] | 6.85 |
| Cc1ccc([C@@H](N(C)S(=O)(=O)c2cncnc2)C(F)(F)F)cc1 [Example 226, (R)—N-methyl-N-(2,2,2-trifluoro-1-(p-tolyl)ethyl)pyrimidine-5-sulfonamide] | 6.79 |
| COc1cc(S(=O)(=O)N(C)[C@H](c2ccc(Cl)cc2)C(F)(F)F)cnn1 [Example 229, (R)—N-(1-(4-chlorophenyl)-2,2,2-trifluoroethyl)-6-methoxy-N-methylpyridazine-4-sulfonamide] | 6.93 |
| CN([C@H](c1ccc(Cl)cc1)C(F)(F)F)S(=O)(=O)c1cnc2ncccn12 [Example 230, (R)—N-(1-(4-chlorophenyl)-2,2,2-trifluoroethyl)-N-methylimidazo[1,2-a]pyrimidine-3-sulfonamide] | 7.00 |
| CN([C@H](c1ccc(C(F)(F)F)cc1)C(F)(F)F)S(=O)(=O)c1ccc2ncc(Cl)n2c1 [Example 233, (R)-3-chloro-N-methyl-N-(2,2,2-trifluoro-1-(4-(trifluoromethyl)phenyl)ethyl)imidazo[1,2-a]pyridine-6-sulfonamide] | 5.91 |
| CN([C@H](c1ccc(C(F)(F)F)cc1)C(F)(F)F)S(=O)(=O)c1ccc2nccn2c1 [Example 234, (R)—N-methyl-N-(2,2,2-trifluoro-1-(4-(trifluoromethyl)phenyl)ethyl)imidazo[1,2-a]pyridine-6-sulfonamide] | 6.38 |
| CN([C@H](c1ccc(C(F)(F)F)cc1)C(F)(F)F)S(=O)(=O)c1ccn2ccnc2c1 [Example 236, (R)—N-methyl-N-(2,2,2-trifluoro-1-(4-(trifluoromethyl)phenyl)ethyl)imidazo[1,2-a]pyridine-7-sulfonamide] | 7.33 |
| CCN(C(c1ccc(F)cc1F)C(F)(F)F)S(=O)(=O)c1cncc(C#N)c1 (centres unmarked) [Example 243, 5-cyano-N-(1-(2,4-difluorophenyl)-2,2,2-trifluoroethyl)-N-ethylpyridine-3-sulfonamide] | 5.19 |
| CCN(C(c1ccc(F)cc1F)C(F)(F)F)S(=O)(=O)c1cncc(C#N)c1 (centres unmarked) [Example 244, 5-cyano-N-(1-(2,4-difluorophenyl)-2,2,2-trifluoroethyl)-N-ethylpyridine-3-sulfonamide] | 5.84 |
| CCN([C@@H](c1ccc(F)c(C)c1)C(F)(F)F)S(=O)(=O)c1cncc(C#N)c1 [Example 245, (S)-5-cyano-N-ethyl-N-(2,2,2-trifluoro-1-(4-fluoro-3-methylphenyl)ethyl)pyridine-3-sulfonamide] | 5.70 |
